Measured values published in patent US20040248765A1, “Tumour targeting prodrugs activated by metallo matrixproteinases” (priority 2001, published 2004).
Where a name gives a salt, the structure may show the parent alone. Read-outs that look alike come from different tables or passages of the source. Where a SMILES comes first, the peptide text is derived from it. [ ]: non-standard residue; d: D form. The star is where a group is joined. NH(CH2)3NH(1-anthraquinonyl) = O=C1c2ccccc2C(=O)c2c(NCCCN*)cccc21; Nle = CCCC[C@H](N)C(=O)O; Nva = CCC[C@H](N)C(=O)O; Mob = COc1ccc(C*)cc1

Columns and labels:
[1] = tested on: MAC15A adenocarcinoma of the colon; experiment: In vitro cytotoxicity against MAC15A adenocarcinoma of the colon, 96 hours exposure; assay type: cell-based
[2] = Mus musculus, exposure time 96 hours, read-out: IC50
[3] = exposure time 96 hours, read-out: IC50

## CCC[C@H](NC(=O)[C@H](C)N)C(=O)NCC(=O)N[C@@H](CC(C)C)C(=O)N1CCC[C@H]1C(=O)NCCCNc1cccc2c1C(=O)c1ccccc1C2=O.O=C(O)C(F)(F)F (H-A[Nva]GLP-{NH(CH2)3NH(1-anthraquinonyl)})
other
  melting point: 198 °C

## CCC[C@H](NC(=O)[C@H](C)N)C(=O)N[C@@H](CC(C)C)C(=O)NCC(=O)N[C@@H](CC(C)C)C(=O)N1CCC[C@H]1C(=O)NCCCNc1cccc2c1C(=O)c1ccccc1C2=O.O=C(O)C(F)(F)F (H-A[Nva]LGLP-{NH(CH2)3NH(1-anthraquinonyl)})
other
  melting point: 192 °C

## COc1ccc(CSC[C@H](N)C(=O)NCC(=O)N[C@@H](CC(C)C)C(=O)N2CCC[C@H]2C(=O)NCCCNc2cccc3c2C(=O)c2ccccc2C3=O)cc1.O=C(O)C(F)(F)F (H-C(Mob)GLP-{NH(CH2)3NH(1-anthraquinonyl)})
other
  melting point: 182 °C

## CC(C)C[C@H](NC(=O)CN)C(=O)N[C@@H](C)C(=O)N[C@@H](CC(C)C)C(=O)N1CCC[C@H]1C(=O)NCCCNc1cccc2c1C(=O)c1ccccc1C2=O.O=C(O)C(F)(F)F (H-GLALP-{NH(CH2)3NH(1-anthraquinonyl)})
other
  melting point: 192 to 194 °C

## CC(C)C[C@H](NC(=O)[C@H](C)NC(=O)[C@@H](N)CC(C)C)C(=O)N1CCC[C@H]1C(=O)NCCCNc1cccc2c1C(=O)c1ccccc1C2=O.O=C(O)C(F)(F)F (H-LALP-{NH(CH2)3NH(1-anthraquinonyl)})
other
  melting point: 178 to 180 °C

## CC(C)C[C@H](NC(=O)[C@H](Cc1ccccc1)NC(=O)[C@@H](N)CC(C)C)C(=O)N1CCC[C@H]1C(=O)NCCCNc1cccc2c1C(=O)c1ccccc1C2=O.O=C(O)C(F)(F)F (H-LFLP-{NH(CH2)3NH(1-anthraquinonyl)})
other
  melting point: 184 to 186 °C

## CCC[C@H](NC(=O)CNC(=O)[C@@H](N)CC(C)C)C(=O)N1CCC[C@H]1C(=O)NCCCNc1cccc2c1C(=O)c1ccccc1C2=O.O=C(O)C(F)(F)F (H-LG[Nva]P-{NH(CH2)3NH(1-anthraquinonyl)})
other
  melting point: 172 to 176 °C

## CC(C)C[C@H](NC(=O)[C@@H](N)Cc1ccc(O)cc1)C(=O)NCC(=O)N[C@@H](CC(C)C)C(=O)N1CCC[C@H]1C(=O)NCCCNc1cccc2c1C(=O)c1ccccc1C2=O.O=C(O)C(F)(F)F (H-YLGLP-{NH(CH2)3NH(1-anthraquinonyl)})
other
  melting point: 184 to 188 °C

## CCC[C@H](NC(=O)[C@@H](N)Cc1ccc(O)cc1)C(=O)NCC(=O)N[C@@H](CC(C)C)C(=O)N1CCC[C@H]1C(=O)NCCCNc1cccc2c1C(=O)c1ccccc1C2=O.O=C(O)C(F)(F)F (H-Y[Nva]GLP-{NH(CH2)3NH(1-anthraquinonyl)})
other
  melting point: 174 °C

## CCCC[C@H](N)C(=O)NCC(=O)N[C@@H](CC(C)C)C(=O)N1CCC[C@H]1C(=O)NCCCNc1cccc2c1C(=O)c1ccccc1C2=O.O=C(O)C(F)(F)F (H-[Nle]GLP-{NH(CH2)3NH(1-anthraquinonyl)})
other
  melting point: 169 °C

## CCC[C@H](N)C(=O)NCC(=O)N[C@@H](CC(C)C)C(=O)N1CCC[C@H]1C(=O)NCCCNc1cccc2c1C(=O)c1ccccc1C2=O.O=C(O)C(F)(F)F (H-[Nva]GLP-{NH(CH2)3NH(1-anthraquinonyl)})
other
  melting point: 210 °C

## CCC[C@H](N)C(=O)N[C@@H](CC(C)C)C(=O)NCC(=O)N[C@@H](CC(C)C)C(=O)N1CCC[C@H]1C(=O)NCCCNc1cccc2c1C(=O)c1ccccc1C2=O.O=C(O)C(F)(F)F (H-[Nva]LGLP-{NH(CH2)3NH(1-anthraquinonyl)})
other
  melting point: 189 °C

## O=C(O)C(F)(F)F.O=C1c2ccccc2C(=O)c2c(NCCCNC(=O)[C@H]3CCCN3)cccc21 [Example 9, 1-[3-(D-Prolylamino)propylamino]anthraquinone trifluoroacetate]
[1]; Mus musculus, 96 h
  IC50: 3.5 µM
other
  melting point: 177 °C

## CC(C)C[C@H](N)C(=O)N1CCC[C@@H]1C(=O)NCCCNc1cccc2c1C(=O)c1ccccc1C2=O [Example 10, 1-[3-(L-Leucyl-D-prolylamino)propylamino]anthraquinone trifluoroacetate]
[1]; Mus musculus, 96 h
  IC50: 7 µM

## CC(C)C[C@H](NC(=O)CN)C(=O)N1CCC[C@@H]1C(=O)NCCCNc1cccc2c1C(=O)c1ccccc1C2=O [Example 11, 1-[3-(Glycyl-L-leucyl-D-prolylamino)propylamino]anthraquinone trifluoroacetate]
[1]; Mus musculus, 96 h
  IC50: 22 µM

## CC(C)C[C@H](NC(=O)CNC(=O)[C@@H](N)CC(C)C)C(=O)N1CCC[C@@H]1C(=O)NCCCNc1cccc2c1C(=O)c1ccccc1C2=O [Example 12, 1-[3-(L-Leucyl-glycyl-L-leucyl-D-prolylamino)propylamino]-anthraquinone trifluoroacetate] (H-LGL[dP]-{NH(CH2)3NH(1-anthraquinonyl)})
[1]; Mus musculus, 96 h
  IC50: 30 µM

## CC(C)C[C@H](NC(=O)[C@H](C)NC(=O)[C@H](C)N)C(=O)NCC(=O)N[C@@H](CC(C)C)C(=O)N1CCC[C@@H]1C(=O)NCCCNc1cccc2c1C(=O)c1ccccc1C2=O.O=C(O)C(F)(F)F [Example 14, 1-[3-(L-Alanyl-L-alanyl-L-leucyl-glycyl-L-leucyl-D-prolylamino)-propylamino]anthraquinone trifluoroacetate]
[1]; [2]
  IC50: 38 µM
other
  melting point: 132 °C

## CC(C)C[C@H](NC(=O)[C@H](C)NC(=O)[C@H](C)NC(=O)[C@@H](C)N)C(=O)NCC(=O)N[C@@H](CC(C)C)C(=O)N1CCC[C@@H]1C(=O)NCCCNc1cccc2c1C(=O)c1ccccc1C2=O.O=C(O)C(F)(F)F [Example 15, 1-[3-(D-Alanyl-L-alanyl-L-alanyl-L-leucyl-glycyl-L-leucyl-D-prolylamino)propylamino]anthraquinone trifluoroacetate] (H-[dA]AALGL[dP]-{NH(CH2)3NH(1-anthraquinonyl)})
[1]; Mus musculus, 96 h
  IC50: 40 µM
other
  melting point: 166 °C

## CCC[C@H](NC(=O)[C@@H](N)CCC)C(=O)NCC(=O)N[C@@H](CC(C)C)C(=O)N1CCC[C@H]1C(=O)NCCCNc1cccc2c1C(=O)c1ccccc1C2=O.O=C(O)C(F)(F)F [Example 45, 1-[3-(L-Norvalyl-L-norvalyl-glycyl-L-leucyl-L-prolylamino)propyl-amino]anthraquinone trifluoroacetate] (H-[Nva][Nva]GLP-{NH(CH2)3NH(1-anthraquinonyl)})
[1]; [2]
  IC50: 4 µM
other
  melting point: 174 to 176 °C

## CCC[C@H](NC(=O)[C@H](C)N)C(=O)N[C@@H](CCC)C(=O)NCC(=O)N[C@@H](CC(C)C)C(=O)N1CCC[C@H]1C(=O)NCCCNc1cccc2c1C(=O)c1ccccc1C2=O [Example 46, 1-3-(L-Alanyl-L-norvalyl-L-norvalyl-glycyl-L-leucyl-L-prolylamino)-propylamino]anthraquinone trifluoroacetate] (H-A[Nva][Nva]GLP-{NH(CH2)3NH(1-anthraquinonyl)})
[1]; [3]
  IC50: 8 µM

## CCC[C@H](NC(=O)[C@H](C)NC(=O)[C@@H](C)N)C(=O)N[C@@H](CCC)C(=O)NCC(=O)N[C@@H](CC(C)C)C(=O)N1CCC[C@H]1C(=O)NCCCNc1cccc2c1C(=O)c1ccccc1C2=O [Example 47, 1-[3-(D-AlanyI-L-alanyl-L-norvalyl-L-norvalyl-glycyl-L-leucyl-L-prolylamino)propylamino]anthraquinone trifluoroacetate] (H-[dA]A[Nva][Nva]GLP-{NH(CH2)3NH(1-anthraquinonyl)})
[1]; [3]
  IC50: 22 µM

## N[C@@H](Cc1ccccc1)C(=O)N1CCC[C@H]1C(=O)NCCCNc1cccc2c1C(=O)c1ccccc1C2=O.O=C(O)C(F)(F)F [Example 72, 1-[3-(L-Phenylalanyl-L-prolylamino)propylamino]anthraquinone trifluoroacetate]
[1]; Mus musculus, 96 h
  IC50: 3 µM
other
  melting point: 118 to 120 °C
